US20260285857A1, “BICYCLIC AND HETEROCYCLIC AMIDE COMPOUNDS” (priority 2024, published 2026)

Test system: immunoglobulin light chain protein WIL-FL T46L
Assay: Differential scanning fluorimetry (thermal shift) assay
Type: binding
Settings: temperature shift [Tm]compound-[Tm]vehicle, recombinant WIL-FL T46L

Compound	DSF (Table B)	DSF (Table A)
Cc1ccc([C@@]2(C)CCN(c3cc(C)c4nc(C(=O)N5CC[C@@]6(CCN(c7cccc(C(=O)O)n7)C6)C5)nn4c3)C2)cc1 [Compound 750]	***** (>2.5° C.=*****)	
Cc1cc(N2CC[C@](C)(c3ccccc3)C2)cn2nc(C(=O)NC3CCC(c4ccc(C(=O)O)c(F)c4)CC3)nc12 (stereo partly shown) [Compound 224]		***** (>2.5° C.=*****)
Cc1cc(N2CC[C@](C)(c3ccccc3)C2)cn2nc(C(=O)N3CCC4(CCC(N5CC(C(=O)O)C5)C4)C3)nc12 (stereo partly shown) [Compound 722]	***** (>2.5° C.=*****)	
Cc1cc(N2CC[C@](C)(c3ccccc3)C2)cn2nc(C(=O)N[C@H]3CNCC34CC4)nc12 [Compound 187]		***** (>2.5° C.=*****)
Cc1cc(N2CC[C@](C)(c3ccccc3)C2)cn2nc(C34CC(CO3)C4c3nc(NS(=O)(=O)C4CC(C)(C(=O)O)C4)n[nH]3)nc12 (stereo partly shown) [Compound 565]	***** (>2.5° C.=*****)	
Cc1cc(N2CC[C@](C)(c3ccccc3)C2)cn2nc(C(=O)N[C@@H]3CN(c4cccc(C(=O)O)n4)CC3(C)C)nc12 [Compound 683]	***** (>2.5° C.=*****)	
Cc1cc(N2CC[C@](C)(c3ccccc3)C2)cn2nc([C@@]34CO[C@@H](C3)C(N)C4)nc12 (stereo partly shown) [Compound 67]		**** (>1.5-2.5° C.=****)
Cc1cc(N2CC[C@](C)(c3ccccc3)C2)cn2nc(C(=O)N3CC4(CCN4Cc4cccc(C(=O)O)n4)C3)nc12 [Compound 260]		***** (>2.5° C.=*****)
Cc1cc(N2CC[C@](C)(c3ccccc3)C2)cn2nc(C(=O)N[C@H]3CNC[C@H]3F)nc12 [Compound 149]		***** (>2.5° C.=*****)
Cc1cc(N2CC[C@](C)(c3ccccc3)C2)cn2nc(C(=O)O)nc12 [Compound 184]		** (>0.5-1 °C =**)
Cc1nc(C2C3(CO)COC2(c2nc4c(C)cc(N5CC[C@](C)(c6ccccc6)C5)cn4n2)C3)n[nH]1 (stereo partly shown) [Compound 43]		***** (>2.5° C.=*****)
Cc1cc(N2CC[C@](C)(c3ccccc3)C2)cn2nc(C(=O)NC34COC(CO)(C3)C4)nc12 [Compound 173]		***** (>2.5° C.=*****)
Cc1cc(N2CCC(C)(n3ccc(C(F)F)n3)C2)cn2nc(C(=O)N3CC[C@@]4(CCN(c5cccc(C(=O)O)n5)C4)C3)nc12 (stereo partly drawn) [Compound 735, 6-[(5R)-2-[6-[3-[3-(difluoromethyl)pyrazol-1-yl]-3-methyl-pyrrolidin-1-yl]-8-methyl-[1,2,4]triazolo[1,5-a]pyridine-2-carbonyl]-2,7-diazaspiro[4.4]nonan-7-yl]pyridine-2-carboxylic acid]	**** (>1.5-2.5° C.=****)	
CC(O)c1cc(N2CC[C@](C)(c3ccccc3)C2)cn2nc(C(=O)NC3CCN(c4cccc(C(=O)O)n4)CC3)nc12 (stereo partly shown) [Compound 342]		***** (>2.5° C.=*****)
Cc1cc(N2CC[C@](C)(c3ccccc3)C2)cn2nc(C(=O)N3CC[C@H]4[C@@H]3CC(=O)N4c3cccc(C(=O)O)n3)nc12 [Compound 704, 6-((3aS,6aS)-4-(8-methyl-6-((R)-3-methyl-3-phenylpyrrolidin-1-yl)-[1,2,4]triazolo[1,5-a]pyridine-2-carbonyl)-2-oxohexahydropyrrolo[3,2-b]pyrrol-1(2H)-yl)picolinic acid]	***** (>2.5° C.=*****)	
Cc1cc(NC(=O)C23COC(c4nc5c(C)cc(N6CC[C@](C)(c7ccccc7)C6)cn5n4)(C2)C3)cc(C(=O)O)n1 [Compound 452]	***** (>2.5° C.=*****)	
Cc1cc(N2CC[C@](C)(c3ccccc3)C2)cn2nc(C(=O)N[C@@H]3CCCN(c4cccc(C(=O)O)n4)C3)nc12 [Compound 693]	***** (>2.5° C.=*****)	
Cc1cc(N2CC[C@](C)(c3ccccc3)C2)cn2nc(C(=O)N3CC4=C(C3)CN(c3cccc(C(=O)O)n3)C4)nc12 [Compound 231]		***** (>2.5° C.=*****)
Cc1cc(N2CC[C@](C)(c3ccccc3)C2)cn2nc(C34CC(CO3)C4c3nc(NC(=O)C4CC(C(=O)O)C4)n[nH]3)nc12 (stereo partly shown) [Compound 550]	***** (>2.5° C.=*****)	
Cc1cc(N2CC[C@](C)(c3ccccc3)C2)cn2nc(C34CC(CO)(CO3)C4N3CC4(COC4)NC3=O)nc12 (stereo partly shown) [Compound 577]	***** (>2.5° C.=*****)	
Cc1cc(OC[C@H](C)c2ccccc2)cn2nc(C(=O)NC3CC4(C3)CC(N3CC5C(C3)C5C(=O)O)C4)nc12 (stereo partly shown) [Compound 314]		***** (>2.5° C.=*****)
Cc1cc(N2CC[C@](C)(c3ccccc3)C2)cn2nc(C34CC(N5CCC(C(=O)O)CC5=O)(CO3)C4)nc12 (stereo partly drawn) [Compound 469, 1-(1-(8-methyl-6-((R)-3-methyl-3-phenylpyrrolidin-1-yl)-[1,2,4]triazolo[1,5-a]pyridin-2-yl)-2-oxabicyclo[2.1.1]hexan-4-yl)-2-oxopiperidine-4-carboxylic acid]	***** (>2.5° C.=*****)	
Cc1cc(N2CC[C@](C)(c3ccccc3)C2)cn2nc(C34CC(CO3)C4c3nc(NC(=O)[C@@H]4C[C@H]4C(=O)O)n[nH]3)nc12 (stereo partly shown) [Compound 557]	***** (>2.5° C.=*****)	

Compound	DSF (Table B)	DSF (Table A)
Cc1cc(N2CC[C@](C)(c3ccccc3)C2)cn2nc(C(=O)NC34COC(C3)C4)nc12 [Compound 183]		***** (>2.5° C.=*****)
Cc1cc(N2CC[C@](C)(c3ccccc3)C2)cn2nc(C(=O)N[C@H]3C[C@@]4(CCN(c5cccc(C(=O)O)n5)C4)C3)nc12 [Compound 624]	***** (>2.5° C.=*****)	
Cc1cc(N2CCC(C)(C#N)C2)cn2nc(C(=O)N3CC4CN(c5cccc(C(=O)O)n5)CC4C3)nc12 (stereo not shown) [Compound 430]		* (0-0.5° C.=*)
C[C@@]1(c2ccccc2)CCN(c2cc(CO)c3nc(C(=O)N4CC5CN(c6cccc(C(=O)O)n6)CC5C4)nn3c2)C1 (stereo partly shown) [Compound 347]		***** (>2.5° C.=*****)
Cc1cc(N2CC[C@](C)(c3ccccc3)C2)cn2nc(C(=O)NC3CCN(c4cccnc4C(=O)O)CC3)nc12 [Compound 265]		***** (>2.5° C.=*****)
Cc1cc(N2CC[C@](C)(c3ccccc3)C2)cn2nc(C(=O)N3CC4CC(C(=O)O)CC4C3)nc12 (stereo partly shown) [Compound 592]	***** (>2.5° C.=*****)	
C[C@]1(c2ccccc2)CCN(c2cc(CN)c3nc(C(=O)N4CC[C@@]5(CCN(c6cccc(C(=O)O)n6)C5)C4)nn3c2)C1 [Compound 345]		***** (>2.5° C.=*****)
Cc1cc(N2CC[C@](C)(c3ccccc3)C2)cn2nc(C34CC(CO3)C4COC3CC4(C3)CN(c3ccnc(O)c3)C4)nc12 (stereo partly drawn) [Compound 497, 4-(6-((1-(8-methyl-6-((R)-3-methyl-3-phenylpyrrolidin-1-yl)-[1,2,4]triazolo[1,5-a]pyridin-2-yl)-2-oxabicyclo[2.1.1]hexan-5-yl)methoxy)-2-azaspiro[3.3]heptan-2-yl)pyridin-2-ol]	***** (>2.5° C.=*****)	
Cc1cc(N2CC[C@](C)(c3ccccc3)C2)cn2nc(C(=O)N3CCC(N4CC5C(C4)C5C(=O)O)CC3)nc12 (stereo partly shown) [Compound 366]		***** (>2.5° C.=*****)
Cc1cc(N2CC[C@](C)(c3ccccc3)C2)cn2nc(C(=O)N3CCC4(CCC(c5cccc(C(=O)O)n5)C4)C3)nc12 (stereo partly drawn) [Compound 640, 6-[2-[8-methyl-6-[(3R)-3-methyl-3-phenyl-pyrrolidin-1-yl]-[1,2,4]triazolo[1,5-a]pyridine-2-carbonyl]-2-azaspiro[4.4]nonan-8-yl]pyridine-2-carboxylic acid]	***** (>2.5° C.=*****)	
Cc1cc(N2CC[C@](C)(c3ccccc3)C2)cn2nc(C(=O)NC3CC4(C3)CN(C(=O)C3CCC(C(=O)O)O3)C4)nc12 (stereo partly drawn) [Compound 596, 5-[6-[[8-methyl-6-[(3R)-3-methyl-3-phenyl-pyrrolidin-1-yl]-[1,2,4]triazolo[1,5-a]pyridine-2-carbonyl]amino]-2-azaspiro[3.3]heptane-2-carbonyl]tetrahydrofuran-2-carboxylic acid]	***** (>2.5° C.=*****)	
Cc1cc(N2CC[C@](C)(c3ccccc3)C2)cn2nc(C(=O)NC3(CO)CCCN(c4cccc(C(=O)O)n4)C3)nc12 (stereo partly drawn) [Compound 682, 6-[3-(hydroxymethyl)-3-[[8-methyl-6-[(3R)-3-methyl-3-phenyl-pyrrolidin-1-yl]-[1,2,4]triazolo[1,5-a]pyridine-2-carbonyl]amino]-1-piperidyl]pyridine-2-carboxylic acid]	***** (>2.5° C.=*****)	
Cc1cc(N2CC[C@@](c3ccccc3)(C(F)F)C2)cn2nc(C(=O)NCC(C)(C)O)nc12 [Compound 327]		***** (>2.5° C.=*****)
Cc1n[nH]c(C2C3COC2(c2nc4c(C)cc(N5CC[C@](C)(c6ccccc6)C5)cn4n2)C3)n1 (stereo partly shown) [Compound 74]		***** (>2.5° C.=*****)
CNC(=O)c1nc2c(C)cc(N3CC[C@@](c4ccccc4)(C(F)F)C3)cn2n1 [Compound 329]		***** (>2.5° C.=*****)
Cc1nnc(C2(C)CCN(c3cc(C)c4nc(C(=O)N5C[C@@H]6CN(c7cccc(C(=O)O)n7)C[C@@H]6C5)nn4c3)C2)s1 (stereo partly shown) [Compound 301]		* (0-0.5° C.=*)
Cc1cc(N2CC[C@](C)(c3ccccc3)C2)cn2nc(C34CC(CO3)C4c3ncn[nH]3)nc12 (stereo partly shown) [Compound 494]	***** (>2.5° C.=*****)	
Cc1cc(N2CC[C@](C)(c3ccccc3)C2)cn2nc(C34CC(Nc5cccc(C(=O)O)n5)(CO3)C4)nc12 [Compound 465, (R)-6-((1-(8-methyl-6-(3-methyl-3-phenylpyrrolidin-1-yl)-[1,2,4]triazolo[1,5-a]pyridin-2-yl)-2-oxabicyclo[2.1.1]hexan-4-yl)amino)picolinic acid]	***** (>2.5° C.=*****)	
Cc1cc(N2CCC(C)(c3ccc(O)cc3)C2)cn2nc(C(=O)N3CC[C@@]4(CCN(c5cccc(C(=O)O)n5)C4)C3)nc12 (stereo partly shown) [Compound 413]		**** (>1.5-2.5° C.=****)
Cc1cc(N2CC[C@](C)(c3ccccc3)C2)cn2nc(C(=O)NC34CCC(CO)(CC3)OC4)nc12 [Compound 602]	***** (>2.5° C.=*****)	
Cc1cc(N2CC[C@](C)(c3ccccc3)C2)cn2nc(S(=O)(=O)NC3CCNCC3)nc12 [Compound 325]		***** (>2.5° C.=*****)
Cc1cc(N2CC[C@](C)(c3ccccc3)C2)cn2nc(C34CC(CO3)C4Cc3ncnn3C)nc12 (stereo partly shown) [Compound 86]		***** (>2.5° C.=*****)
Cc1cc(N2CC[C@](C)(c3ccccc3)C2)cn2nc(C(=O)N3CC[C@@](C)(O)C3)nc12 [Compound 159]		***** (>2.5° C.=*****)
